Experiments:
[1] = test system: human gastric cancer SGC-7901 tumor transplanted in nude mice; assay: Growth inhibition of human gastric cancer SGC-7901 tumor transplanted in nude mice; type: in vivo; settings: SGC-7901 xenograft
Experimental: (§1) Method: 1. Establishing model of human gastric cancer SGC-7901 tumor transplanted in nude mice, and animal groups: SGC_7901 cell lines were cultured with medium RPMI1640 containing 10% fetal bovine serum. SGC-7901 cells at logarithmic growth phase were trypsinized into single cell suspension. Final concentration of the cell was adjusted with medium RPMI1640 into 5×10^7/mL. 0.2 mL of cell suspension was injected subcutaneously into right anterior axillary of each nude mouse. 14 days after inoculation, when the tumor size grew to about 130 to 180 mm^3, the nude mice were randomized into five groups according to tumor size and body weight of mice, with 8-12 mice in each group. 5 groups were: a blank control group (purified water containing 0.5% of hydroxypropyl methylcellulose and 0.1% Tween 80, administered through gavage, each at morning and evening, for 10 days), 12.5, 25 and 50 mg/kg of I-1 treatment group (administered through gavage, each at morning and evening, for 10 days), and 100 mg/kg cyclophosphamide (CYP) group (by intraperitoneal injection, once every 5 days, for 2 weeks), respectively.
(§2) 2. Growth situation of subcutaneous human gastric cancer tumor transplanted in nude mice and inhibitory effect was observed: from the dosing day, body weight of nude mouse as well as the maximum diameter (D) and minimum diameter (d) of tumor were observed every two days. The tumor size was calculated following the formula V=Dd^2/2, and the tumor growth curve was plotted. At the end of the experiment, the tumor was dissected in whole and picture was taken. Growth rate of nude mouse body weight before and after treatment=[(body weight after treatment−body weight before treatment)/body weight before treatment]*100%; tumor inhibition rate=[1−(tumor size after treatment in the experiment group−tumor size before treatment in the experiment group)/(tumor size after treatment in the control group−tumor size before treatment in the control group)]*100%

[2] = test system: human gastric cancer MGC-803 tumor transplanted in nude mice; assay: Growth inhibition of human gastric cancer MGC-803 tumor transplanted in nude mice; type: in vivo; settings: MGC-803 xenograft
Experimental: (§3) Method: 1. Establishing model of human gastric cancer MGC-803 tumor transplanted in nude mice, and animal groups: MGC-803 cell lines were cultured with medium RPMI1640 containing 10% fetal bovine serum. MGC-803 cells at logarithmic growth phase were trypsinized into single cell suspension. Final concentration of the cell was adjusted with medium RPMI1640 into 5×10^7/mL. 0.2 mL of cell suspension was injected subcutaneously into right anterior axillary of each nude mouse. 8 days after inoculation, when the tumor size grew to about 110 mm^3, the mice were randomized into five groups according to tumor size and body weight of mice, with 10 mice in each group. 5 groups were: a blank control group (purified water containing 0.5% of hydroxypropyl methylcellulose and 0.1% Tween 80, administered through gavage, once per day, for […]), 4, 6 and 9 mg/kg of I-2 treatment group (administered through gavage, once per day, for 17 days), and 100 mg/kg cyclophosphamide group (by intraperitoneal injection, once every 7 days, for 3 weeks), respectively.
as §2, with “3-4” for “two”

[3] = test system: human gastric cancer cell line SGC-7901; assay: MTT growth inhibition assay, SGC-7901; type: cell-based; settings: SGC-7901, MTT, 96 hours incubation
Experimental: (§4) Method: Cells in the logarithmic growth phase (human gastric cancer cell lines SGC-7901, MGC-803, human oral epidermoid carcinoma cell line KB, human non-small cell lung cancer cell line A549, human breast ductal cancer cell line BT-549, human prostate cancer cell line PC-3, human colon cancer cell line HT-29, human brain astrocytic glioblastoma cell line U-87MG and a human hepatoma cell line SMMC-7721) at a concentrations of 1.5×10^4 were inoculated in 96 well plates. The original medium was removed after cell culture for 24 hours until adherence. The tests included blank control group and drug treatment group. For the control group, the medium was replaced with 1640 medium containing 10% fetal bovine serum; for the drug treatment group, the medium was replaced with medium containing compounds I-1, I-2 and I-3 to be tested at concentrations of 100 μM, 50 μM, 10 μM, 1 μM, 0.1 μM, 0.01 μM, 0.001 μM, 0.0001 μM and 0.00001 μM. After incubation for 96 hours add MTT at a concentration of 5 mg/mL, and resume incubation in a CO2 incubator for 4 hours. And then along the upper part of the culture solution, remove 100 μL, of supernatant, add 100 μL of DMSO, allow to place at a dark for 10 minutes. With a microplate reader (a product from Sunrise company), absorbance was measured (at wavelength 570 nm), and cell survival situation is calculated based on the absorbance. Six duplicated wells were set for each treatment. Cell viability (%)=ΔODdrug treatment/ΔODblank control×100.

[4] = test system: human gastric cancer cell line MGC-803; assay: MTT growth inhibition assay, MGC-803; type: cell-based; settings: MGC-803, MTT, 96 hours incubation
Experimental: as §4

[5] = test system: human oral epidermoid carcinoma cell line KB; assay: MTT growth inhibition assay, KB; type: cell-based; settings: 96 hours incubation
Experimental: as §4

[6] = test system: human non-small cell lung cancer cell line A549; assay: MTT growth inhibition assay, A549; type: cell-based; settings: 96 hours incubation
Experimental: as §4

[7] = test system: human breast ductal cancer cell line BT-549; assay: MTT growth inhibition assay, BT-549; type: cell-based; settings: BT-549, MTT, 96 hours incubation
Experimental: as §4

[8] = test system: human prostate cancer cell line PC-3; assay: MTT growth inhibition assay, PC-3; type: cell-based; settings: PC-3, MTT, 96 hours incubation
Experimental: as §4

[9] = test system: human colon cancer cell line HT-29; assay: MTT growth inhibition assay, HT-29; type: cell-based; settings: HT-29, MTT, 96 hours incubation
Experimental: as §4

[10] = test system: human brain astrocytic glioblastoma cell line U-87MG; assay: MTT growth inhibition assay, U-87MG; type: cell-based; settings: U-89MG [sic], 96 hours incubation
Experimental: as §4

[11] = test system: human hepatoma cell line SMMC-7721; assay: MTT growth inhibition assay, SMMC-7721; type: cell-based; settings: SMMC-7721, MTT, 96 hours incubation
Experimental: as §4

[12] = Body weight change / toxicity in SGC-7901 tumor-bearing nude mice
Experimental: as §1
(§5) 2. […] The tumor size was calculated following the formula V=Dd^2/2, and the tumor growth curve was plotted. […]

[13] = test system: a variety of human tumor cell lines; assay: Growth inhibition on various strains of human tumor cell with MTT assay (overall statements); type: cell-based; settings: in words
Experimental: as §4, with “Six duplicated wells were set for each treatment. Cell viability (%)=ΔODdrug treatment/ΔODblank control×100.” left out

[14] = Body weight change / toxicity in MGC-803 tumor-bearing nude mice
Experimental: as §3, §5

| Structure (SMILES) | IC50 [3] | IC50 [4] | IC50 [5] | IC50 [6] | IC50 [7] | IC50 [8] | IC50 [9] | IC50 [10] | IC50 [11] | Inhibitory effect on the growth of a variety of human tumor cell lines [13] | other results |
| --- | --- | --- | --- | --- | --- | --- | --- | --- | --- | --- | --- |
| O=P1(N(CCCl)CCCl)NCCCO1 (centres unmarked) [CYP, cyclophosphamide, reference compound] |  |  |  |  |  |  |  |  |  |  | Tumor inhibition rate ([1]; 100 mg/kg, intraperitoneal injection, once every 5 days, for 2 weeks): 39.5%; Tumor inhibition rate ([2]; 100 mg/kg, intraperitoneal injection, once every 7 days, for 3 weeks): 62.4% |
| Cc1cc2c(cn1)C(c1ccccc1Cl)=Nc1c(n[nH]c1C)N2 [Compound I-1] | 290 ± 130 nM | 980 ± 40 nM | 1350 ± 50 nM | 690 ± 240 nM | 390 ± 230 nM | 1900 ± 390 nM | 160 ± 40 nM | 400 ± 20 nM | 140 ± 30 nM | very significant inhibition | Tumor inhibition rate ([1]; 12.5 mg/kg, gavage, each at morning and evening, for 10 days): 67.5%; Tumor inhibition rate ([1]; 25 mg/kg, gavage, each at morning and evening, for 10 days): 83%; Tumor inhibition rate ([1]; 50 mg/kg, gavage, each at morning and evening, for 10 days): 88.6%; Toxic side effect ([12]; 12.5, 25 and 50 mg/kg, gavage, twice daily, 10 days): negligible toxic side effect; Effect on weight gain of nude mouse ([12]; only for the highest dose of 50 mg/kg, FIG. 3): mild effect on weight gain |
| CCc1cc2c(cn1)C(c1ccccc1Cl)=Nc1c(n[nH]c1C)N2 [Compound I-2, 9-(2-chlorophenyl)-6-ethyl-1-methyl-2,4-dihydrogen-2,3,4,7,10-pentaaza-benzo [f] azulene] | 90 ± 10 nM | 700 ± 20 nM | 620 ± 10 nM | 250 ± 140 nM | 70 ± 30 nM | 850 ± 100 nM | 80 ± 10 nM | 60 ± 40 nM | 40 ± 10 nM | very significant inhibition | Tumor inhibition rate ([2]; 4 mg/kg, gavage, once per day, for 17 days): 72.5%; Tumor inhibition rate ([2]; 6 mg/kg, gavage, once per day, for 17 days): 97.3%; Tumor inhibition rate ([2]; 9 mg/kg, gavage, once per day, for 17 days): 100%; Toxic side effect ([14]; 4, 6 and 9 mg/kg, gavage, once per day, 17 days): negligible toxic side effect; Effect on weight gain of nude mouse ([14]; only for the highest dose of 9 mg/kg on treatment day 3-6, FIG. 6): mild effect on weight gain |
| Cc1cc2c(cn1)C(c1ccccc1F)=Nc1c(n[nH]c1C)N2 [Compound I-3] | 1630 ± 130 nM | 4860 ± 390 nM | 7270 ± 590 nM | 3250 ± 250 nM | 1950 ± 230 nM | 11300 ± 1300 nM | 740 ± 80 nM | 1940 ± 240 nM | 820 ± 190 nM |  |  |

From US9382249B2, “Antitumor aza-benzo [f] azulen derivative, method for preparing same, and use thereof” (TIANYI BIOSCIENCE CO. LTD., priority 2012, dated 2016)
